# Results reported in patent publication US20040127439A1, “Introduction of the wld gene for prevention of axonal degeneration in neurological diseases” (priority 2004, published 2004).
# Where two headings read alike, the source gives them in different places.
# How the values were obtained:
# [1] = tested on: C57BL/6 cultured neurites; test: Vincristine neuropathy in C57BL/6 mouse DRG cultures; assay type: cell-based
# Procedure: DRGs were allowed to mature for 5 days to create a lush halo of neurites. […] This date was defined as treatment day 0. […] Cultures were monitored and imaged on day 0, day 4, day 8 and day 10 of treatment using video microscopy.
# Measures of axonal survival were the length of longest remaining axon, and the area of remaining DRG halo, as determined by serial phase-contrast video microscopy (FIG. 6). The axonal length was measured from the center of the DRG to the visible distal end of the axon. […] Data were thus analyzed as percent of day 0.
# rat DRG cultures = test: Resistance to vincristine-induced axonal degeneration in adenovirus-infected rat DRG cultures; assay type: cell-based
# Procedure: Adenovirus was generated as previously described. Briefly, the modified transfer vector was linearized with NheI for preparation of the recombinant adenovirus. […] The transfected 293A cells were trypsinized and diluted with 293A cells, seeded into the 96-well tissue culture plates, and kept at 37 C, 5% CO2 for several days. […] Recombinant adenoviruses were purified from wild type viruses by the limiting dilution method. Adenovirus titers were determined by TCID-50 (Tissue Culture Infectious Dose).
# Cultures had extended neurites for 6 days before introduction of the transgene. Transgene expression, indicated by GFP fluorescence, was monitored by fluorescence microscopy.
# The methods for DRG culture have been previously described. […] Suppression of Schwann cell growth was accomplished by addition of fluorodeoxyuridine and uridine (both at a dose of 10^−6M, Sigma) on days 2-5.
# E15 DRG were grown in culture for 6 days and then exposed to adenovirus (with or without the Wld^Stransgene) as described above. […] Length and area measurements were performed and analyzed as described above for mouse cultures.
# DRG neurites = conditions: for reduction in DRG area versus day 0: vincristine 0.01 μM; for Area (DRG neuritic halo) / Length (longest neurite): Vin 0.01 μM, AK295 50 μM, EGTA 2 mM, sulfate salt
# Procedure: On the day of DRG culture, the dishes are washed twice with PBS buffer (pH 7.4), filled with 550 μl medium and pre-incubated at 37 C for at least 2 hours. Fifteen-day old embryos (E15) are removed from pregnant Sprague-Dawley rats (Charles River), and spinal cords with cervical and thoracic DRGs attached are dissected into Leibovitz L-15 medium (GIBCO). Ganglia are separated from the spinal cord, stripped of their connective tissue sheaths and roots, and are then pooled and washed twice with PBS buffer (pH 7.4). DRGs are plated (4 per dish) in culture media and incubated at 37° C. in 5% carbon dioxide for 4 hours to allow DRGs to attach to the substrate. Medium is then added to bring the total volume to 1 ml. […] Calcium-free medium is prepared in the same manner, replacing MEM with S-MEM (GIBCO).
# At the end of the treatment period (see below) DRGs are fixed for 30 minutes with 4% paraformaldehyde. Cultures are then rinsed with 0.1M TBS buffer, and treated sequentially with 3% H2O2, TBS-Triton, and 4% normal goat serum (NGS), each for 30 minutes at room temperature. DRGs are incubated at 4 C overnight in monoclonal antibody to MAP5 (1:500, Sigma). After washing in TBS-Triton, DRGs are incubated for 60 minutes in biotinylated secondary antibody, rinsed with TBS and reacted with avidin-biotin complex solution (ABC; Vector Labs) for one hour. Color is generated by incubation for 10 minutes in diaminobenzidine (DAB) solution, enhanced by addition of 0.025% cobalt chloride and 0.02% nickel ammonium sulfate. Stained tissue is rinsed, air dried and cover-slipped for microscopy with Crystal/Mount (Biomeda).
# This method of allowing neuritic extension to proceed before addition of a neurotoxin tests the effect of the toxin on established neurites as opposed to the effect on primary neuritic outgrowth.
# After day 5 of culture, the media is changed to that containing the experimental treatment. This date is defined as treatment day 0. Cultures are monitored and imaged daily using video microscopy. […] AK 295 (Z-leu-Abu-(CH2)3-4-morpholinyl, gift of Dr. James Powers, Georgia Institute of Technology), is dissolved in 100% DMSO and is then diluted to its final concentration with culture medium. The final concentration of DMSO is 0.05%. Phenylmethylsulfonyl fluoride (PMSF) is manufactured by and commercially available from Sigma.
# After 6 days of treatment (11 days in culture) immunostained DRGs are quantitated for degree of axonal degeneration. Images of the DRGs and neurites are captured onto disk using a computerized video imaging system, and are analyzed using NIH Image version 1.61. DRG areas are calculated by tracing the outside circumference of the remaining culture halo. The length of the longest neurite of each DRG is measured from the center of the DRG to the distal end of the neurite, so that cultures without remaining neurites still have positive values. These quantitative data are subjected to ANOVA, with post-test correction for multiple comparisons.
# C57BL/6 DRG axons = test: Vincristine withdrawal in C57BL/6 mouse DRG cultures; assay type: cell-based; conditions: 0.05 μM vincristine for 24 hours, 4 days after exposure
# Procedure: The methods for DRG culture have been previously described.
# Cultures were measured for length of longest axon and area of the DRG halo at days 4, 8, 12, 16 and 20. Lengths were measured from the center of the DRG to the visible distal end of the axon, and areas were calculated by tracing the circumference crested by connecting the tips of the remaining axons. […] Comparisons were made between quantitative data for C57BL/6 and Wld^S axons. For assessment of growth, day 4 observations in Wld^S were compared to all succeeding days using ANOVA for repeated measures.
# [2] = vincristine 0.01 μM, Day 4, C57BL/6
# [3] = vincristine 0.01 μM, Day 10, C57BL/6
# [4] = vincristine 0.02 μM, Day 4, C57BL/6
# [5] = vincristine 0.02 μM, Day 8, C57BL/6
# [6] = vincristine 0.02 μM, Day 10, C57BL/6
# [7] = vincristine 0.05 μM, Day 4, C57BL/6
# [8] = vincristine 0.05 μM, Day 8, C57BL/6
# [9] = vincristine 0.05 μM, Day 10, C57BL/6
# [10] = vincristine 0.1 μM, Day 4, C57BL/6
# [11] = vincristine 0.1 μM, Day 8, C57BL/6
# [12] = vincristine 0.1 μM, Day 10, C57BL/6
# [13] = Day 4, continuous 0.01 μM vincristine
# [14] = Day 8, continuous 0.01 μM vincristine
# [15] = Day 10, continuous 0.01 μM vincristine
# [16] = Day 3 of treatment, listed as Vin
# [17] = Day 4 of treatment, listed as Vin
# [18] = Day 6 of treatment, PMSF 50 μM, listed as Vin
substance,measurement,setting,value
Vincristine sulfate salt,halo area at day 10 compared to day 0,"[1]; C57BL/6, vincristine 0.01 μM",42.86±7.30%
same,length of longest axons at day 10 compared to day 0,"[1]; C57BL/6, vincristine 0.01 μM",50.99±5.97%
same,halo area at day 10 compared to day 0,"[1]; C57BL/6, vincristine 0.1 μM",0.45±0.09%
same,length of longest axons at day 10 compared to day 0,"[1]; C57BL/6, vincristine 0.1 μM",3.56±0.62%
same,Area of DRG Halo,[1]; [2],7.34 ± 0.78 mm^2
same,Length of Longest Neurite,[1]; [2],1.77 ± 0.12 mm
same,Area of DRG Halo,"[1]; vincristine 0.01 μM, Day 8, C57BL/6",5.79 ± 0.86 mm^2
same,Area of DRG Halo,[1]; [3],4.42 ± 0.85 mm^2
same,Length of Longest Neurite,[1]; [3],1.22 ± 0.17 mm
same,Area of DRG Halo,[1]; [4],4.56 ± 1.10 mm^2
same,Length of Longest Neurite,[1]; [4],1.28 ± 0.22 mm
same,Area of DRG Halo,[1]; [5],1.14 ± 0.49 mm^2
same,Length of Longest Neurite,[1]; [5],0.53 ± 0.16 mm
same,Area of DRG Halo,[1]; [6],0.56 ± 0.27 mm^2
same,Length of Longest Neurite,[1]; [6],0.41 ± 0.13 mm
same,Area of DRG Halo,[1]; [7],1.20 ± 0.47 mm^2
same,Length of Longest Neurite,[1]; [7],0.32 ± 0.08 mm
same,Area of DRG Halo,[1]; [8],0.05 ± 0.01 mm^2
same,Length of Longest Neurite,[1]; [8],0.09 ± 0.01 mm
same,Area of DRG Halo,[1]; [9],0.04 ± 0.01 mm^2
same,Length of Longest Neurite,[1]; [9],0.07 ± 0.01 mm
same,Area of DRG Halo,[1]; [10],0.46 ± 0.19 mm^2
same,Length of Longest Neurite,[1]; [10],0.30 ± 0.09 mm
same,Area of DRG Halo,[1]; [11],0.04 ± 0.01 mm^2
same,Length of Longest Neurite,[1]; [11],0.08 ± 0.01 mm
same,Area of DRG Halo,[1]; [12],0.04 ± 0.01 mm^2
same,Length of Longest Neurite,[1]; [12],0.08 ± 0.01 mm
same,Area of DRG halo (% of Day 0),rat DRG cultures; [13],30.43 ± 5.05 % of Day 0
same,Length of axons (% of Day 0),rat DRG cultures; [13],48.79 ± 4.72 % of Day 0
same,Area of DRG halo (% of Day 0),rat DRG cultures; [14],13.23 ± 1.52 % of Day 0
same,Length of axons (% of Day 0),rat DRG cultures; [14],35.86 ± 3.76 % of Day 0
same,Area of DRG halo (% of Day 0),rat DRG cultures; [15],9.78 ± 2.22 % of Day 0
same,Length of axons (% of Day 0),rat DRG cultures; [15],26.28 ± 4.08 % of Day 0
same,process of axonal degeneration (in words),DRG neurites; 0.01 μM,relatively slow
same,reduction in DRG area versus day 0,DRG neurites; 4 days exposure,91.5%
same,reduction in DRG area versus day 0,DRG neurites; 6 days exposure,97.9%
same,Area (DRG neuritic halo),DRG neurites; [16],6.78 ± 1.06 (17) mm^2
same,Length (longest neurite),DRG neurites; [16],1.62 ± 0.19 mm
same,Area (DRG neuritic halo),DRG neurites; Day 3 of treatment,6.78±1.06 mm^2
same,Length (longest neurite),DRG neurites; Day 3 of treatment,1.62±0.19 mm
same,Area (DRG neuritic halo),DRG neurites; [17],2.45 ± 0.74 (13) mm^2
same,Length (longest neurite),DRG neurites; [17],0.91 ± 0.19 mm
same,Area (DRG neuritic halo),DRG neurites; Day 4 of treatment,2.45±0.74 mm^2
same,Length (longest neurite),DRG neurites; Day 4 of treatment,0.91±0.19 mm
same,Area (DRG neuritic halo),DRG neurites; [18],0.61 ± 0.21 (48) mm^2
same,Length (longest neurite),DRG neurites; [18],0.37 ± 0.06 mm
same,Area (DRG neuritic halo),"DRG neurites; Day 6 of treatment, PMSF 50 μM",0.16±0.61 mm^2
same,Length (longest neurite),"DRG neurites; Day 6 of treatment, PMSF 50 μM",0.37±0.06 mm
same,time within which axonal degeneration occurs,"DRG neurites; concentrations 0.05 μM, 5 day-old cultures",1 to 3 days
same,reduction in length of the longest axons versus day 0,"DRG neurites; day 3, vincristine 0.01 μM",57.6%
same,reduction in length of the longest axons versus day 0,"DRG neurites; day 4, vincristine 0.01 μM",76.2%
same,reduction in length of the longest axons versus day 0,"DRG neurites; day 6, vincristine 0.01 μM",90.3%
same,reduction in DRG area versus day 0,DRG neurites; three days exposure,76.6%
same,time until fibers are completely replaced by axonal debris,DRG neurites; vincristine exposure (FIG. 1: 0.01 μM),5 to 6 days
same,"DRG area, % of control values",C57BL/6 DRG axons,32%
same,"axon length, % of control values",C57BL/6 DRG axons,35%
